Measurements taken from US20230218765A1, “SMALL MOLECULE DEGRADERS OF SHP2 PROTEIN” (THE REGENTS OF THE UNIVERSITY OF MICHIGAN, priority 2020, published 2023).
Where a SMILES comes first, the peptide text is derived from it. The star is where a group is joined. Cbz = O=C(OCc1ccccc1)*

Experiments:
SHP2 [1] = biological target: T1, SHP2 (Homo sapiens, UniProt Q06124); assay: SHP2 degradation by Western blot in MV4;11 cells; conditions: 0.1 µM
T1 sequence (Q06124 1-593): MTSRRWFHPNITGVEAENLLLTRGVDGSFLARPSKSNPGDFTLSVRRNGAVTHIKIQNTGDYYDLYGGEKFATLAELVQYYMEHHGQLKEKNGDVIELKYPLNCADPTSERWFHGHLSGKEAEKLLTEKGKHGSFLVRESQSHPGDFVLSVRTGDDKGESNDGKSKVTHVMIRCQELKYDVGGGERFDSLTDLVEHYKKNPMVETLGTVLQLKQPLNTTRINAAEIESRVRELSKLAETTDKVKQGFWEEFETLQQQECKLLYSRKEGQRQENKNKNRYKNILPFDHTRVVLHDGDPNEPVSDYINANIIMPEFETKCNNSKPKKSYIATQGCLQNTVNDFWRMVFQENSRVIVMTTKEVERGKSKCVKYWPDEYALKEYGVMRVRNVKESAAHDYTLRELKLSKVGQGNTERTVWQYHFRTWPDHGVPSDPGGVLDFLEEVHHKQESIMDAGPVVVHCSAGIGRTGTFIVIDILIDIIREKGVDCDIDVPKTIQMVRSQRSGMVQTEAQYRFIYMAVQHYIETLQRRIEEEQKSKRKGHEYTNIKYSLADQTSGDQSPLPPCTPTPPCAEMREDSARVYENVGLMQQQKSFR
Experimental: (§1) Western blotting and quantification were performed with regular western blot method and band quantification was performed using ImageJ. Treated cells were lysed by RIPA buffer supplemented with protease and phosphatase inhibitors. […] The net protein bands and loading controls are calculated by deducting the background from the inverted band value. The final relative quantification values are the ratio of the net band to net loading control.
(§2) The treated cells were harvested and the level of SHP2 protein was examined by blot analysis. GAPDH was used as a loading control.
(§3) SHP2 protein was examined by Western blotting and the protein level was quantified by densitometry and normalized to the corresponding density of the GAPDH protein. […] Cells were treated with 100 nM of SHP2-D26 for different times. SHP2 protein was examined by Western blotting and the GAPDH protein was used as the loading control.

SHP2 [2] = biological target: T1, SHP2; assay: SHP2 degradation by Western blot in KYSE520 cells; conditions: for block of SHP2-D26-induced degradation of SHP2 protein: KYSE520, pre-treatment 1 h (VHL 10 µM, compound 4 10 µM, MLN4924 0.5 µM, MG132 3 µm), then SHP2-D26 0.1 µM
Experimental: as §1, §2, §3

SMILES | % of SHP2 protein degradation in MV4;11 cell line (SHP2 [1]) [%] | % of SHP2 protein degradation in KYSE520 cell line (SHP2 [2]; 0.1 µM) [%] | % of SHP2 protein degradation in KYSE520 cell line (SHP2 [2]; 1 µM) [%] | block of SHP2-D26-induced degradation of SHP2 protein (SHP2 [2])
Cc1ncsc1-c1ccc([C@@H](C)NC(=O)[C@H]2C[C@H](O)CN2C(=O)[C@H](NC(=O)CCCCCCCCCCCN2CCN(CC(=O)Nc3cccc(Sc4ncc(N5CCC(C)(N)CC5)nc4N)c3Cl)CC2)C(C)(C)C)cc1 [Compound 24] | 6 | 80 | >95 | –
Cc1ncsc1-c1ccc([C@@H](C)NC(=O)[C@H]2C[C@H](O)CN2C(=O)[C@H](NC(=O)COCCOCCOCCOCCNC(=O)CCC(=O)Nc2cccc(Sc3ncc(N4CCC(C)(N)CC4)nc3N)c2Cl)C(C)(C)C)cc1 [Compound 22] | 95 | 53 | >95 | –
Cc1ncsc1-c1ccc([C@@H](C)NC(=O)[C@H]2C[C@H](O)CN2C(=O)[C@H](NC(=O)CCCCCCCCCCCNC(=O)CCCC(=O)Nc2cccc(Sc3ncc(N4CCC(C)(N)CC4)nc3N)c2Cl)C(C)(C)C)cc1 [Compound 19] | – | >95 | >95 | –
Cc1ncsc1-c1ccc([C@@H](C)NC(=O)[C@H]2C[C@H](O)CN2C(=O)[C@H](NC(=O)COCCOCCOCCNC(=O)CCC(=O)Nc2cccc(Sc3ncc(N4CCC(C)(N)CC4)nc3N)c2Cl)C(C)(C)C)cc1 [Compound 20] | >95 | 80 | >95 | –
Cc1ncsc1-c1ccc([C@H](C)NC(=O)[C@@H]2C[C@@H](O)CN2C(=O)[C@@H](NC(=O)CCOCCOCCOCCNC(=O)CC(=O)Nc2cccc(Sc3ncc(N4CCC5(CCC[C@@H]5N)CC4)nc3N)c2Cl)C(C)(C)C)cc1 [Compound 42] | 94 | >95 | >95 | –
NS(=O)(=O)OC[C@@H]1C[C@@H](n2ccc3c(N[C@H]4CCc5ccccc54)ncnc32)C[C@@H]1O [MLN4924, reference compound] | – | – | – | effectively block degradation of SHP2 protein
Cc1ncsc1-c1ccc([C@@H](C)NC(=O)[C@H]2C[C@H](O)CN2C(=O)[C@H](NC(=O)CCCCCCCCCN2CCN(C(=O)CCC(=O)Nc3cccc(Sc4ncc(N5CCC(C)(N)CC5)nc4N)c3Cl)CC2)C(C)(C)C)cc1 [Compound 27] | >95 | >95 | >95 | –
Cc1ncsc1-c1ccc([C@@H](C)NC(=O)[C@H]2C[C@H](O)CN2C(=O)[C@H](NC(=O)CCCCCCCCCCCCCCC(=O)Nc2cccc(Sc3ncc(N4CCC(C)(N)CC4)nc3N)c2Cl)C(C)(C)C)cc1 [Compound 25] | 8 | 62 | 90 | –
Cc1ncsc1-c1ccc([C@@H](C)NC(=O)[C@H]2C[C@H](O)CN2C(=O)[C@H](NC(=O)CCCCCCCOc2ccc(NC(=O)CCC(=O)Nc3cccc(Sc4ncc(N5CCC(C)(N)CC5)nc4N)c3Cl)cc2)C(C)(C)C)cc1 [Compound 28] | 90 | >95 | >95 | –
Cc1ncsc1-c1ccc([C@@H](C)NC(=O)[C@H]2C[C@H](O)CN2C(=O)[C@H](NC(=O)CCOCCOCCOCCNC(=O)CCC(=O)Nc2cccc(Sc3ncc(N4CCC(C)(N)CC4)nc3N)c2Cl)C(C)(C)C)cc1 [Compound 21] | 85 | 32 | 87 | –
CC(C)C[C@@H](C=O)NC(=O)[C@H](CC(C)C)NC(=O)[C@H](CC(C)C)NC(=O)OCc1ccccc1 [MG132, reference compound] (Cbz-Leu-Leu-Leu-aldehyde) | – | – | – | effectively block degradation of SHP2 protein

Now from value to molecule, other results behind:

% of SHP2 protein degradation in MV4;11 cell line (SHP2 [1]) [%] | % of SHP2 protein degradation in KYSE520 cell line (SHP2 [2]; 0.1 µM) [%] | % of SHP2 protein degradation in KYSE520 cell line (SHP2 [2]; 1 µM) [%] | SMILES | block of SHP2-D26-induced degradation of SHP2 protein (SHP2 [2])
>95 | >95 | >95 | Cc1ncsc1-c1ccc([C@@H](C)NC(=O)[C@H]2C[C@H](O)CN2C(=O)[C@H](NC(=O)CCCCCCCCCCCNC(=O)CC(=O)Nc2cccc(Sc3ncc(N4CCC(C)(CN)CC4)nc3N)c2Cl)C(C)(C)C)cc1 [Compound 40] | –
– | 0 | 3 | Cc1ncsc1-c1ccc([C@@H](C)NC(=O)[C@H]2C[C@H](O)CN2C(=O)[C@H](NC(=O)CCCCCNC(=O)CC(=O)Nc2cccc(Sc3ncc(N4CCC(C)(N)CC4)nc3N)c2Cl)C(C)(C)C)cc1 [Compound 10] | –
– | 13 | 6 | Cc1ncsc1-c1ccc([C@@H](C)NC(=O)[C@H]2C[C@H](O)CN2C(=O)[C@H](NC(=O)CCCCNC(=O)CC(=O)Nc2cccc(Sc3ncc(N4CCC(C)(N)CC4)nc3N)c2Cl)C(C)(C)C)cc1 [Compound 9] | –
– | >95 | >95 | Cc1ncsc1-c1ccc([C@@H](C)NC(=O)[C@H]2C[C@H](O)CN2C(=O)[C@H](NC(=O)CCCCCCCCCCNC(=O)CCC(=O)Nc2cccc(Sc3ncc(N4CCC(C)(N)CC4)nc3N)c2Cl)C(C)(C)C)cc1 [Compound 17] | –
– | >95 | 92 | Cc1ncsc1-c1ccc([C@@H](C)NC(=O)[C@H]2C[C@H](O)CN2C(=O)[C@H](NC(=O)CCCCCCCCCNC(=O)CC(=O)Nc2cccc(Sc3ncc(N4CCC(C)(N)CC4)nc3N)c2Cl)C(C)(C)C)cc1 [Compound 14] | –
– | 0 | 0 | Cc1ncsc1-c1ccc([C@@H](C)NC(=O)[C@H]2C[C@H](O)CN2C(=O)[C@H](NC(=O)CCCCCCNC(=O)CC(=O)Nc2cccc(Sc3ncc(N4CCC(C)(N)CC4)nc3N)c2Cl)C(C)(C)C)cc1 [Compound 11] | –
– | 20 | 14 | Cc1ncsc1-c1ccc([C@@H](C)NC(=O)[C@H]2C[C@H](O)CN2C(=O)[C@H](NC(=O)CCCCCCCNC(=O)CC(=O)Nc2cccc(Sc3ncc(N4CCC(C)(N)CC4)nc3N)c2Cl)C(C)(C)C)cc1 [Compound 12] | –
– | 81 | 80 | Cc1ncsc1-c1ccc([C@@H](C)NC(=O)[C@H]2C[C@H](O)CN2C(=O)[C@H](NC(=O)CCCCCCCCNC(=O)CC(=O)Nc2cccc(Sc3ncc(N4CCC(C)(N)CC4)nc3N)c2Cl)C(C)(C)C)cc1 [Compound 13] | –
– | >95 | 93 | Cc1ncsc1-c1ccc([C@@H](C)NC(=O)[C@H]2C[C@H](O)CN2C(=O)[C@H](NC(=O)CCCCCCCCCCCNC(=O)CC(=O)Nc2cccc(Sc3ncc(N4CCC(C)(N)CC4)nc3N)c2Cl)C(C)(C)C)cc1 [Compound 16] | –
– | >95 | >95 | Cc1ncsc1-c1ccc([C@@H](C)NC(=O)[C@H]2C[C@H](O)CN2C(=O)[C@H](NC(=O)CCCCCCCCCCCNC(=O)CCC(=O)Nc2cccc(Sc3ncc(N4CCC(C)(N)CC4)nc3N)c2Cl)C(C)(C)C)cc1 [Compound 18] | –
– | >95 | >95 | Cc1ncsc1-c1ccc([C@@H](C)NC(=O)[C@H]2C[C@H](O)CN2C(=O)[C@H](NC(=O)CCCCCCCCCCNC(=O)CC(=O)Nc2cccc(Sc3ncc(N4CCC(C)(N)CC4)nc3N)c2Cl)C(C)(C)C)cc1 [Compound 15] | –
– | 9 | 7 | Cc1ncsc1-c1ccc([C@@H](C)NC(=O)[C@H]2C[C@H](O)CN2C(=O)[C@H](NC(=O)CCCNC(=O)CC(=O)Nc2cccc(Sc3ncc(N4CCC(C)(N)CC4)nc3N)c2Cl)C(C)(C)C)cc1 [Compound 8] | –
